Experimental data from PMC7523345 (Investigational new drugs, 2018).

Experiment: Phase I dose escalation study: safety, tolerability, DLT and MTD
Type: in vivo

In the case of `Cc1cccc2c1NC(=O)[C@@H](NC(=O)[C@H](CCC(F)(F)F)[C@H](CCC(F)(F)F)C(N)=O)N=C2c1cccc(F)c1` [BMS-986115], the “Gr 3/4 diarrhoea related to the study treatment” value (1.5 mg QD, 2 of 7 patients) is reported as 29%, the “Time for Gr 3/4 diarrhoea to resolve to Gr 1” value (1.5 mg QD, with appropriate medical management) is reported as ≤ 24 h and the “Abdominal distension (drug related AE, all grades)” value (All patients (N = 36)) is reported as 2 (6) n (%). For the same compound, the “Abdominal pain (drug related AE, Grade 3 and 4)” value (All patients (N = 36)) was 1 (3) n (%), the “Abdominal pain (drug related AE, all grades)” value (All patients (N = 36)) was 3 (8) n (%) and the “Blood creatinine increased (drug related AE, all grades)” value (All patients (N = 36)) was 2 (6) n (%). For the same compound, the “Colitis (drug related AE, Grade 3 and 4)” value (All patients (N = 36)) was 1 (3) n (%), the “Cough (drug related AE, Grade 3 and 4)” value (All patients (N = 36)) was 1 (3) n (%) and the “Cough (drug related AE, all grades)” value (All patients (N = 36)) was 4 (11) n (%). For the same compound, the “Decreased Appetite (drug related AE, Grade 3 and 4)” value (All patients (N = 36)) was 1 (3) n (%), the “Decreased Appetite (drug related AE, all grades)” value (All patients (N = 36)) was 13 (36) n (%) and the “Dehydration (drug related AE, Grade 3 and 4)” value (All patients (N = 36)) was 1 (3) n (%). For the same compound, the “Dehydration (drug related AE, all grades)” value (All patients (N = 36)) was 5 (14) n (%), the “Dermatitis acneiform (drug related AE, all grades)” value (All patients (N = 36)) was 4 (11) n (%) and the “Diarrhoea (drug related AE, Grade 3 and 4)” value (All patients (N = 36)) was 7 (19) n (%). The “Diarrhoea (drug related AE, all grades)” value (All patients (N = 36)) was 26 (72) n (%), the “Dry mouth (drug related AE, all grades)” value (All patients (N = 36)) was 3 (8) n (%) and the “Dry skin (drug related AE, all grades)” value (All patients (N = 36)) was 5 (14) n (%). For the same compound, the “Dysgeusia (drug related AE, all grades)” value (All patients (N = 36)) was 5 (14) n (%), the “Dyspepsia (drug related AE, all grades)” value (All patients (N = 36)) was 3 (8) n (%) and the “Dysphonia (drug related AE, all grades)” value (All patients (N = 36)) was 5 (14) n (%). The “Fatigue (drug related AE, Grade 3 and 4)” value (All patients (N = 36)) was 1 (3) n (%), the “Fatigue (drug related AE, all grades)” value (All patients (N = 36)) was 16 (44) n (%) and the “Flatulence (drug related AE, all grades)” value (All patients (N = 36)) was 3 (8) n (%). For the same compound, the “Hypocalcaemia (drug related AE, Grade 3 and 4)” value (All patients (N = 36)) was 1 (3) n (%), the “Hypocalcaemia (drug related AE, all grades)” value (All patients (N = 36)) was 2 (6) n (%) and the “Hypokalaemia (drug related AE, Grade 3 and 4)” value (All patients (N = 36)) was 4 (11) n (%). The “Hypokalaemia (drug related AE, all grades)” value (All patients (N = 36)) was 10 (28) n (%), the “Hyponatraemia (drug related AE, Grade 3 and 4)” value (All patients (N = 36)) was 2 (6) n (%) and the “Hyponatraemia (drug related AE, all grades)” value (All patients (N = 36)) was 2 (6) n (%). For the same compound, the “Hypophosphataemia (drug related AE, Grade 3 and 4)” value (All patients (N = 36)) was 14 (39) n (%), the “Hypophosphataemia (drug related AE, all grades)” value (All patients (N = 36)) was 23 (64) n (%) and the “Ileus (drug related AE, Grade 3 and 4)” value (All patients (N = 36)) was 1 (3) n (%). For the same compound, the “Increased upper airway secretion (drug related AE, all grades)” value (All patients (N = 36)) was 3 (8) n (%), the “Laryngeal pain (drug related AE, all grades)” value (All patients (N = 36)) was 2 (6) n (%) and the “Leucocytosis (drug related AE, Grade 3 and 4)” value (All patients (N = 36)) was 1 (3) n (%). The “Mouth ulceration (drug related AE, all grades)” value (All patients (N = 36)) was 3 (8) n (%), the “Nausea (drug related AE, Grade 3 and 4)” value (All patients (N = 36)) was 4 (11) n (%) and the “Nausea (drug related AE, all grades)” value (All patients (N = 36)) was 22 (61) n (%). For the same compound, the “Pruritus (drug related AE, Grade 3 and 4)” value (All patients (N = 36)) was 1 (3) n (%), the “Pruritus (drug related AE, all grades)” value (All patients (N = 36)) was 9 (25) n (%) and the “Pulmonary embolism (drug related AE, Grade 3 and 4)” value (All patients (N = 36)) was 1 (3) n (%). The “Rash (drug related AE, all grades)” value (All patients (N = 36)) was 11 (31) n (%), the “Rash maculopapular (drug related AE, all grades)” value (All patients (N = 36)) was 5 (14) n (%) and the “Sinusitis (drug related AE, all grades)” value (All patients (N = 36)) was 2 (6) n (%). For the same compound, the “Urticaria (drug related AE, Grade 3 and 4)” value (All patients (N = 36)) was 1 (3) n (%), the “Vision blurred (drug related AE, all grades)” value (All patients (N = 36)) was 2 (6) n (%) and the “Vomiting (drug related AE, Grade 3 and 4)” value (All patients (N = 36)) was 1 (3) n (%). For the same compound, the “Vomiting (drug related AE, all grades)” value (All patients (N = 36)) was 16 (44) n (%), the “Weight decreased (drug related AE, all grades)” value (All patients (N = 36)) was 2 (6) n (%) and the “Subjects with treatment-related SAEs” value (Arm A QD) was 6 subjects. For the same compound, the “Abdominal distension (drug related AE, all grades)” value (Arm A QD 0.3 mg (N = 2)) was 0 n (%), the “Abdominal pain (drug related AE, Grade 3 and 4)” value (Arm A QD 0.3 mg (N = 2)) was 0 n (%) and the “Abdominal pain (drug related AE, all grades)” value (Arm A QD 0.3 mg (N = 2)) was 0 n (%). For the same compound, the “Blood creatinine increased (drug related AE, all grades)” value (Arm A QD 0.3 mg (N = 2)) was 0 n (%), the “Colitis (drug related AE, Grade 3 and 4)” value (Arm A QD 0.3 mg (N = 2)) was 0 n (%) and the “Cough (drug related AE, Grade 3 and 4)” value (Arm A QD 0.3 mg (N = 2)) was 0 n (%). For the same compound, the “Cough (drug related AE, all grades)” value (Arm A QD 0.3 mg (N = 2)) was 0 n (%), the “Decreased Appetite (drug related AE, Grade 3 and 4)” value (Arm A QD 0.3 mg (N = 2)) was 0 n (%) and the “Decreased Appetite (drug related AE, all grades)” value (Arm A QD 0.3 mg (N = 2)) was 0 n (%). The “Dehydration (drug related AE, Grade 3 and 4)” value (Arm A QD 0.3 mg (N = 2)) was 0 n (%), the “Dehydration (drug related AE, all grades)” value (Arm A QD 0.3 mg (N = 2)) was 0 n (%) and the “Dermatitis acneiform (drug related AE, all grades)” value (Arm A QD 0.3 mg (N = 2)) was 0 n (%). For the same compound, the “Diarrhoea (drug related AE, Grade 3 and 4)” value (Arm A QD 0.3 mg (N = 2)) was 0 n (%), the “Diarrhoea (drug related AE, all grades)” value (Arm A QD 0.3 mg (N = 2)) was 0 n (%) and the “Dry mouth (drug related AE, all grades)” value (Arm A QD 0.3 mg (N = 2)) was 0 n (%). The “Dry skin (drug related AE, all grades)” value (Arm A QD 0.3 mg (N = 2)) was 0 n (%), the “Dysgeusia (drug related AE, all grades)” value (Arm A QD 0.3 mg (N = 2)) was 0 n (%) and the “Dyspepsia (drug related AE, all grades)” value (Arm A QD 0.3 mg (N = 2)) was 0 n (%). For the same compound, the “Dysphonia (drug related AE, all grades)” value (Arm A QD 0.3 mg (N = 2)) was 0 n (%).
